Reference: patent EP0308983A2, “NMR imaging with Mn(II) coordination compositions” (priority 1987, dated 1989)

Legend:
[1] = Paramagnetic relaxation properties in water at 10 MHz (0.15T), RADX spin analyzer; type: physicochemical; conditions: for spin-lattice (T₁) relaxation value / spin-spin (T₂) relaxation value / millimolar relaxivity for T₁ / millimolar relaxivity for T₂ / Relaxivity (mM⁻¹sec⁻¹) Spin-Lattice / Relaxivity (mM⁻¹sec⁻¹) Spin-Spin: 10 MHz (0.15T); for millimolar relaxivity for T₁ / millimolar relaxivity for T₂: in water; for millimolar relaxivity for T₁: calculated from T₁ and concentration; for millimolar relaxivity for T₂: calculated from T₂ and concentration; for Spin-Spin Relaxivity: 0.15 T (10 MHz)
Protocol: The paramagnetic relaxation properties of [manganese(II)·(H₂O)₂·(L-alanine)₂]⁺²(Cl₂)⁻² in water were measured at 10 MHz (0.15T) with a spin analyzer (RADX; Houston, TX) at 37°C. After thermal equilibrium, the spin-lattice (T₁) and spin-spin (T₂) relaxation values were measured in triplicate.
The paramagnetic relaxation of the title compound in water was measured at 10 MHz (0.15T) with a spin analyzer (RADX; Houston, TX). After thermal equilibrium, the spin-lattice (T₁) and spin-spin (T₂) relaxation values were measured.
Relaxivity was measured at 10 MHz (0.15T) as described in Example 10.
The relaxivity of the title compound was performed at 0.15 T (10 MHz) with a RADX Spin Analyzer (Houston, TX) at 37°C.

[2] = Paramagnetic relaxation properties in human plasma at 37°C; type: physicochemical; conditions: for T₂ value / T₁ value / R₁ / R₂ / T₁ changed by (repeat measurement) / T₂ changed by (repeat measurement): 37°C; for T₁ value: triplicate; for T₁ changed by (repeat measurement) / T₂ changed by (repeat measurement): repeat measurement 80 minutes later; for T₂ relaxivity in plasma, fold greater than GdDTPA: versus GdDTPA; for T₁ relaxivity in plasma, fold greater than GdDTPA: versus gadolinium diethylenetriaminepentaacetic acid chelate (GdDTPA)
[3] = 0.97 mM solution in water, 37°C, triplicate, mean +/- SD
[4] = 0.99 mM solution in water, 37°C, triplicate, mean +/- SD
[5] = 0.98 mM solution in water, 37°C, triplicate, mean +/- SD
[6] = 0.94 mM solution in water, 37°C, triplicate, mean +/- SD
[7] = 0.95 mM solution in water, 37°C, triplicate, mean +/- SD

| millimolar relaxivity for T₁ [1] | millimolar relaxivity for T₂ [1] | R₁ [2] | R₂ [2] | T₁ changed by (repeat measurement) [2] | T₂ changed by (repeat measurement) [2] | T₂ relaxivity in plasma, fold greater than GdDTPA [2] | T₁ relaxivity in plasma, fold greater than GdDTPA [2] | Compound | also measured |
| --- | --- | --- | --- | --- | --- | --- | --- | --- | --- |
| 9.35 mM⁻¹ s⁻¹ | 37.0 mM⁻¹ s⁻¹ |  |  |  |  |  |  | NC(CO)C(=O)O.O.O.O.O=C([O-])C(O)C(O)C(O)C(O)CO.O=C([O-])C(O)C(O)C(O)C(O)CO.[Mn+2] [[Manganese(II)(H₂O)₃-L-Serine]Digluconate] | spin-lattice (T₁) relaxation value ([1]; 1 mM solution in water): 107 ms; spin-spin (T₂) relaxation value ([1]; 1 mM solution in water): 27 ms |
| 9.81 mM⁻¹ s⁻¹ | 39.3 mM⁻¹ s⁻¹ | 44.7 mM⁻¹ s⁻¹ | 56.9 mM⁻¹ s⁻¹ | 3% | 1% | 11.9 fold | 9.3 fold | C[C@H](N)C(=O)O.C[C@H](N)C(=O)O.O.O.[Cl-].[Cl-].[Mn+2] [[Manganese(II)·(H₂O)₂·(L-alanine)₂]⁺²(Cl₂)⁻²] | spin-lattice (T₁) relaxation value [1, 4]: 104 ± 9 ms; spin-spin (T₂) relaxation value [1, 4]: 26 ± 1 ms; T₂ value ([2]; 94 µM final concentration): 187 ± 3 ms; T₁ value ([2]; 94 µM final concentration): 238 ± 11 ms |
|  |  |  |  |  |  |  |  | CC(=O)[O-].CC(=O)[O-].O.O.O.O.[Mn+2] [[Manganese(II)·(H₂O)₄]Diacetate, reference compound] | Relaxivity (mM⁻¹sec⁻¹) Spin-Lattice ([1]; 1 mM solution in water): 9.09 mM⁻¹ s⁻¹; Relaxivity (mM⁻¹sec⁻¹) Spin-Spin ([1]; 1 mM solution in water): 33.3 mM⁻¹ s⁻¹; Spin-Spin Relaxivity ([1]; 37°C): 33.30 mM⁻¹ s⁻¹ |
| 9.66 mM⁻¹ s⁻¹ | 37.6 mM⁻¹ s⁻¹ | 47.3 mM⁻¹ s⁻¹ | 61.1 mM⁻¹ s⁻¹ | 2% | 8% | 12.7 fold | 9.9 fold | CC[C@H](C)[C@H](N)C(=O)O.CC[C@H](C)[C@H](N)C(=O)O.O.O.[Cl-].[Cl-].[Mn+2] [[Manganese(II)·(H₂O)₂·(L-isoleucine)₂]⁺²(Cl₂)⁻²] | spin-lattice (T₁) relaxation value [1, 4]: 109 ± 7 ms; spin-spin (T₂) relaxation value [1, 4]: 28 ± 1 ms; T₂ value ([2]; 90 µM final concentration): 182 ± 5 ms; T₁ value ([2]; 90 µM final concentration): 235 ± 7 ms |
|  |  |  |  |  |  |  |  | CC(=O)[O-].CC(=O)[O-].NCC(=O)O.NCC(=O)O.NCC(=O)O.NCC(=O)O.[Mn+2] [[Manganese(II)·(Glycine)₄]Diacetate] | Relaxivity (mM⁻¹sec⁻¹) Spin-Lattice ([1]; 1 mM solution in water): 8.00 mM⁻¹ s⁻¹; Relaxivity (mM⁻¹sec⁻¹) Spin-Spin ([1]; 1 mM solution in water): 33.3 mM⁻¹ s⁻¹ |
| 9.63 mM⁻¹ s⁻¹ | 39.3 mM⁻¹ s⁻¹ | 46.5 mM⁻¹ s⁻¹ | 53.2 mM⁻¹ s⁻¹ | 5% | 12% | 11.1 fold | 9.7 fold | O.O.O=C(O)[C@@H]1CCCN1.O=C(O)[C@@H]1CCCN1.[Cl-].[Cl-].[Mn+2] [Manganese(II)·(H₂O)₂·(L-proline)₂]⁺²(Cl₂)⁻²] | spin-lattice (T₁) relaxation value [1, 5]: 106 ± 4 ms; spin-spin (T₂) relaxation value [1, 5]: 26 ± 2 ms; T₂ value ([2]; 93 µM final concentration): 202 ± 12 ms; T₁ value ([2]; 93 µM final concentration): 234 ± 12 ms |
| 9.73 mM⁻¹ s⁻¹ | 38.2 mM⁻¹ s⁻¹ | 42.3 mM⁻¹ s⁻¹ | 52.8 mM⁻¹ s⁻¹ | 1% | 5% | 11.2 fold | 8.8 fold | CSCC[C@H](N)C(=O)O.CSCC[C@H](N)C(=O)O.O.O.[Cl-].[Cl-].[Mn+2] [Manganese(II)·(H₂O)₂·(L-methionine)₂]⁺²(Cl₂)⁻²] | spin-lattice (T₁) relaxation value [1, 3]: 106 ± 2 ms; spin-spin (T₂) relaxation value [1, 3]: 27 ± 1 ms; T₂ value ([2]; 92 µM final concentration): 202 ± 9 ms; T₁ value ([2]; 92 µM final concentration): 257 ± 18 ms |
| 9.20 mM⁻¹ s⁻¹ | 35.6 mM⁻¹ s⁻¹ | 46.3 mM⁻¹ s⁻¹ | 58.4 mM⁻¹ s⁻¹ | 12% | 1% | 12.2 fold | 9.7 fold | N[C@@H](Cc1c[nH]cn1)C(=O)O.N[C@@H](Cc1c[nH]cn1)C(=O)O.O.O.[Cl-].[Cl-].[Mn+2] [[Manganese(II)·(H₂O)₂·(L-histidine)₂]⁺²(Cl₂)⁻²] | spin-lattice (T₁) relaxation value [1, 3]: 112 ± 4 ms; spin-spin (T₂) relaxation value [1, 3]: 29 ± 1 ms; T₂ value ([2]; 92 µM final concentration): 186 ± 3 ms; T₁ value ([2]; 92 µM final concentration): 235 ± 2 ms |
| 9.33 mM⁻¹ s⁻¹ | 39.4 mM⁻¹ s⁻¹ | 45.7 mM⁻¹ s⁻¹ | 57.9 mM⁻¹ s⁻¹ | 5% | 4% | 12.1 fold | 9.5 fold | CC(C)C[C@H](N)C(=O)O.CC(C)C[C@H](N)C(=O)O.O.O.[Cl-].[Cl-].[Mn+2] [[Manganese(II)·(H₂O)₂·(L-leucine)₂]⁺²(Cl₂)⁻²] | spin-lattice (T₁) relaxation value [1, 6]: 114 ± 9 ms; spin-spin (T₂) relaxation value [1, 6]: 27 ± 1 ms; T₂ value ([2]; 90 µM final concentration): 192 ± 0 ms; T₁ value ([2]; 90 µM final concentration): 243 ± 13 ms |
|  |  |  |  |  |  |  |  | NCC(=O)[O-].NCC(=O)[O-].O.O.O.O.O.O.O=S(=O)([O-])[O-].[Mn+2].[Mn+2] [[Manganese(II)·CH₂(NH₂)COO-]₂⁺¹(SO₄^=), reference compound] | Spin-Spin Relaxivity ([1]; 37°C): 2.92 mM⁻¹ s⁻¹ |
| 9.75 mM⁻¹ s⁻¹ | 39.0 mM⁻¹ s⁻¹ | 44.3 mM⁻¹ s⁻¹ | 59.1 mM⁻¹ s⁻¹ | 5% | did not change | 12.3 fold | 9.2 fold | NC(=O)CC[C@H](N)C(=O)O.NC(=O)CC[C@H](N)C(=O)O.O.O.[Cl-].[Cl-].[Mn+2] [[Manganese(II)·(H₂O)₂·(L-glutamine)₂]⁺²(Cl₂)⁻²] | spin-lattice (T₁) relaxation value [1, 7]: 108 ± 3 ms; spin-spin (T₂) relaxation value [1, 7]: 27 ± 0 ms; T₂ value ([2]; 90 µM final concentration): 188 ± 8 ms; T₁ value ([2]; 90 µM final concentration): 251 ± 18 ms |
|  |  |  |  |  |  |  |  | CC(=O)[O-].CC(=O)[O-].NCC(=O)O.O.O.O.[Mn+2] [[Manganese(II)·(H₂O)₃]·(Glycine)]Diacetate] | Relaxivity (mM⁻¹sec⁻¹) Spin-Lattice ([1]; 1 mM solution in water): 8.26 mM⁻¹ s⁻¹; Relaxivity (mM⁻¹sec⁻¹) Spin-Spin ([1]; 1 mM solution in water): 33.3 mM⁻¹ s⁻¹; Spin-Spin Relaxivity ([1]; 37°C): 33.30 mM⁻¹ s⁻¹ |
| 6.80 mM⁻¹ s⁻¹ | 18.5 mM⁻¹ s⁻¹ |  |  |  |  |  |  | [Manganese(II)(H₂O)₂(L-serine)₂](Glycerophosphate) | spin-lattice (T₁) relaxation value ([1]; 1 mM solution in water): 147 ms; spin-spin (T₂) relaxation value ([1]; 1 mM solution in water): 54 ms |
|  |  |  |  |  |  |  |  | CC(=O)[O-].CC(=O)[O-].NCC(=O)O.NCC(=O)O.NCC(=O)O.O.[Mn+2] [[Manganese(II)·(H₂O)·(Glycine)₃]Diacetate] | Relaxivity (mM⁻¹sec⁻¹) Spin-Lattice ([1]; 1 mM solution in water): 8.47 mM⁻¹ s⁻¹; Relaxivity (mM⁻¹sec⁻¹) Spin-Spin ([1]; 1 mM solution in water): 33.3 mM⁻¹ s⁻¹ |

| Compound | millimolar relaxivity for T₁ [1] | millimolar relaxivity for T₂ [1] | R₁ [2] | R₂ [2] | T₁ changed by (repeat measurement) [2] | T₂ changed by (repeat measurement) [2] | T₂ relaxivity in plasma, fold greater than GdDTPA [2] | T₁ relaxivity in plasma, fold greater than GdDTPA [2] | also measured |
| --- | --- | --- | --- | --- | --- | --- | --- | --- | --- |
| NCCCC[C@H](N)C(=O)O.NCCCC[C@H](N)C(=O)O.O.O.[Cl-].[Cl-].[Mn+2] [Manganese(II)·(H₂O)₂·(L-lysine)₂]⁺²(Cl₂)⁻²] | 9.55 mM⁻¹ s⁻¹ | 39.7 mM⁻¹ s⁻¹ | 47.3 mM⁻¹ s⁻¹ | 56.6 mM⁻¹ s⁻¹ | 3% | 3% | 11.8 fold | 9.9 fold | spin-lattice (T₁) relaxation value [1, 3]: 108 ± 9 ms; spin-spin (T₂) relaxation value [1, 3]: 26 ± 1 ms; T₂ value ([2]; 92 µM final concentration): 192 ± 8 ms; T₁ value ([2]; 92 µM final concentration): 230 ± 9 ms |
| CC(=O)[O-].C[C@H](N)C(=O)O.C[C@H](N)C(=O)O.C[C@H](N)C(=O)O.O.[I-].[Mn+2] [[Manganese(II)H₂O(L-Alanine)₃](Acetate Iodide)] | 9.62 mM⁻¹ s⁻¹ | 38.5 mM⁻¹ s⁻¹ |  |  |  |  |  |  | spin-lattice (T₁) relaxation value ([1]; 1 mM solution in water): 104 ms; spin-spin (T₂) relaxation value ([1]; 1 mM solution in water): 26 ms |
| NCC(=O)O.N[C@@H](CO)C(=O)O.N[C@@H](Cc1c[nH]cn1)C(=O)O.O=C(O)[C@@H]1CCCN1.O=S(=O)([O-])[O-].[Mn+2] [[Manganese(II)·Glycine·L-Serine·L-Histidine·L-Proline](Sulfate)] | 9.71 mM⁻¹ s⁻¹ | 35.7 mM⁻¹ s⁻¹ |  |  |  |  |  |  | spin-lattice (T₁) relaxation value ([1]; 1 mM solution in water): 103 ms; spin-spin (T₂) relaxation value ([1]; 1 mM solution in water): 28 ms |
